“And” between values parts separate entries of the source, which are not always exact repeats. Equal values may be shown once. Read-outs that look alike come from different tables or passages of the source.
Tests used:
maize pollen = experiment: Relative ROS level in maize pollen (ROS detection kit, fluorometry); type: cell-based
Experimental: The red channel or bright channel of the photo was analyzed, and the ROS level was represented by the light intensity of the wavelength with the largest proportion. The relative ROS level in a reproductive tissue refers to a ratio of the ROS level of the reproductive tissue to the ROS level in the control group (40% sucrose).
Taking maize pollen as an example, the experiment of a series of compounds that may affect the ROS level in the maize pollen was tested.
All reagents are dissolved in 40% sucrose. The relative ROS levels were from 6-7 measurements.

[1] = system: sperm cells of maize pollen; experiment: DNA fragmentation in sperm cells of treated maize pollen (single sperm amplified sequencing); conditions: treated pollen vs 40% sucrose control
Description: DNA fragmentation (which is one of the characteristics of haploid) in the treated pollen is detected.
Release sperm cells on the slide and separate a single sperm for amplified sequencing (Sigma WGA4 kit).

[2] = bright channel, ratio to 40% sucrose control, final concentration as listed per compound in Table 5, 6-7 measurements
[3] = red channel, ratio to 40% sucrose control, final concentration as listed per compound in Table 5, 6-7 measurements

Row | Molecule | Relative ROS Level Bright (maize pollen; [2]) | Relative ROS Level Red (maize pollen; [3]) | further results
1 | 1,2-Octadecyl Phosphatidylinositol Di-4,5-Phosphate [Compound 5] | 1.06 ± 0.06 | 1.05 ± 0.07 | –
2 | [Ca+2].[Cl-].[Cl-] [Compound 1, calcium chloride] | – | – | Relative ROS Level Bright (maize pollen): 4.03 ± 0.24 and 3.11 ± 0.23; Relative ROS Level Red (maize pollen): 3.81 ± 0.21 and 3.01 ± 0.23; effect on relative ROS level (in words) (maize pollen): most obvious effect on the increase of ROS level
3 | O=[N+]([O-])[O-].O=[N+]([O-])[O-].[Ca+2] [Compound 2, calcium nitrate] | – | – | Relative ROS Level Bright (maize pollen; bright channel, final concentration 1.83 mM, ratio to 40% sucrose control): 2.57 ± 0.15; Relative ROS Level Bright (maize pollen; bright channel, final concentration 18.3 mM, ratio to 40% sucrose control): 3.08 ± 0.12; Relative ROS Level Red (maize pollen; red channel, final concentration 1.83 mM, ratio to 40% sucrose control): 2.55 ± 0.21; Relative ROS Level Red (maize pollen; red channel, final concentration 18.3 mM, ratio to 40% sucrose control): 2.97 ± 0.12
4 | Nc1ncnc2c1ncn2[C@@H]1O[C@@H]2COP(=O)(O)O[C@H]2[C@H]1O [Compound 3, cyclic Adenosine Monophosphate] | 2.04 ± 0.15 | 1.97 ± 0.10 | –
5 | C/C1=C\[C@H](C)C[C@H](C)OC(=O)C[C@H](c2ccc(O)cc2)NC(=O)[C@@H](Cc2c(Br)[nH]c3ccccc23)N(C)C(=O)[C@H](C)NC(=O)[C@@H](C)C1 [Compound 6, Jasplakinolide] | 1.79 ± 0.16 | 1.77 ± 0.16 | –
6 | CC(=O)OC(C)(C)/C=C/C(=O)[C@](C)(O)[C@H]1[C@H](O)C[C@@]2(C)[C@@H]3CC=C4[C@@H](C=C(O)C(=O)C4(C)C)[C@]3(C)C(=O)C[C@]12C [Compound 7, Cucurbitacin E] | 1.37 ± 0.02 | 1.31 ± 0.08 | –
7 | C/C1=C/C(=O)O[C@@H]2C[C@@H](CC[C@H](C)/C=C\CC1)O[C@@](O)([C@@H]1CSC(=O)N1)C2 [Compound 8, Latrunculin B] | 1.64 ± 0.10 | 1.66 ± 0.06 | –
8 | C/C1=C/C(=O)O[C@@H]2C[C@@H](CC[C@H](C)/C=C\C=C\CC1)O[C@@](O)([C@@H]1CSC(=O)N1)C2 [Compound 9, Latrunculin A] | 1.37 ± 0.00 | 1.35 ± 0.05 | –
9 | Cc1ccc2c(c1)C(=O)C1(O)CCN(c3ccccc3)C1=N2 (stereo not shown) [Compound 10, Blebbistatin] | 1.37 ± 0.14 | 1.35 ± 0.17 | –
10 | c1ccc2c(c1)[I+]c1ccccc1-2 [Compound 11, Diphenyl iodide chloride] | 1.53 ± 0.14 | 1.55 ± 0.13 | –
11 | Cn1cc[nH]c1=S [Compound 12, Methimazole] | – | – | Proportion of fragmentation compared with control group [1]: higher proportion of fragmentation
12 | O=C(NCCN1CCC(n2c(=O)[nH]c3ccccc32)CC1)c1cc2cc(F)ccc2[nH]1 [Compound 13] | 1.35 ± 0.06 | 1.34 ± 0.07 | –
13 | S=C([S-])OC1CC2CC1C1CCCC21.[K+] (stereo not shown) [Compound 16] | 1.12 ± 0.10 | 1.14 ± 0.10 | –
14 | O=P(O)(O)O[C@@H]1[C@H](O)[C@H](O)[C@@H](OP(=O)(O)O)[C@H](OP(=O)(O)O)[C@H]1O [Compound 20, IP3(1,4,5)] | 0.60 ± 0.02 | 0.67 ± 0.03 | –
15 | O=C(O)CC(O)(CC(=O)O)C(=O)O [Compound 21, Citric acid] | 0.74 ± 0.06 | 0.78 ± 0.02 | –
16 | OO [Hydrogen Peroxide, Hydrogen peroxide] | – | – | Proportion of fragmentation compared with control group [1]: higher proportion of fragmentation
17 | Lecithin PC_18:1 [Compound 15] | 1.21 ± 0.18 | 1.19 ± 0.17 | –
18 | PA_18:1 [Compound 25] | 0.33 ± 0.02 | 0.34 ± 0.01 | –
19 | PE_18:1 [Compound 23] | 0.92 ± 0.08 | 0.98 ± 0.04 | –
20 | PG_18:1 [Compound 26] | 0.32 ± 0.00 | 0.33 ± 0.00 | –
21 | PI(3)P_18:1 [Compound 19] | 0.62 ± 0.06 | 0.63 ± 0.05 | –
22 | PI(3,5)PP_18:1 [Compound 17] | 0.82 ± 0.11 | 0.88 ± 0.08 | –
23 | PI(4)P_18:1 [Compound 18] | 0.82 ± 0.10 | 0.84 ± 0.08 | –
24 | PI_18:1 [Compound 24] | 0.81 ± 0.05 | 0.88 ± 0.06 | –
25 | PS_18:1 [Compound 22] | 0.65 ± 0.02 | 0.63 ± 0.05 | –
26 | choline phosphate [Compound 14] | – | – | Relative ROS Level Bright (maize pollen): 1.27 ± 0.11; Relative ROS Level Red (maize pollen): 1.28 ± 0.08
27 | inositol triphosphate [Compound 4] | 1.37 ± 0.00 | 1.39 ± 0.01 | –

From US12501868B2, “Haploid induction compounds and methods for use thereof” (WIMI BIOTECHNOLOGY (HAINAN) CO., LTD., priority 2020, dated 2025)
